Results published in US8946201B2, “Methods for inhibiting TGF-β” (Saint Louis University, priority 2007, dated 2015).

Key:
[1] = system: TβR-I and TβR-II; test: 125I-TGF-β1 affinity labeling, NRK cells; type: cell-based, rat; settings: 1 hr
Protocol: (B, C, D, E) Cells were treated with increasing concentrations of cholesterol in the presence (C) and absence (B, D, E) of 0.2% β-CD, as indicated. After 1 hr at 37° C., ^125I-TGF-β1 affinity labeling of TβR-I and TβR-II in cells was performed at 0° C. ^125I-TGF-β1 affinity-labeled TβR-I and TβR-II were analyzed by 7.5% SDS-PAGE and autoradiography or quantified with a PhosphoImager. A representative of a total of three analyses is shown (top). The bracket indicates the locations of ^125I-TGF-β affinity-labeled TβR-I and TβR-II. The relative intensities of ^125I-TGF-β1 affinity-labeled TβR-I and TβR-II in cells treated without cholesterol were taken as 100%. The quantitative data from three analyses is shown (bottom).
After cross-linking, cell lysates were analyzed by 7.5% SDS-PAGE and autoradiography or quantified by a PhosphoImager. For all experiments, cholesterol or cholesterol derivatives were prepared as the stock solution with a concentration of 25 mg/ml in ethanol. The final concentration of ethanol in the medium was 0.2% (by vol.).

[2] = system: Smad2 phosphorylation stimulated by TGF-β1; test: TGF-β1-stimulated Smad2 phosphorylation, Western blot, BAEC; type: cell-based, bovine; settings: 25 μg/ml, 37° C. 1 hr, then 50 pM TGF-β1 0.5 hr
Protocol: Cells were treated with increasing concentrations of cholesterol, as indicated (A, B, C), 50 μg protein/ml LDL (D), 5 μg protein/ml VLDL (D) or 50 μg/ml cholesterol (E) at 37° C. for 1 hr and then further incubated with 50 pM TGF-β1 for 30 min. Phosphorylated Smad2 (P-Smad2) and total Smad2 in the cell lysates were analyzed by 7.5% SDS-PAGE and followed by immunoblot analysis using anti-P-Smad2 and anti-Smad2 antibodies. A representative of a total of 3 analyses is shown (top). The quantitative analysis of the immunoblots is shown (bottom). […] Smad2 nuclear translocation was analyzed by indirect immunofluorescent staining using P-Smad2 antibody and rhodamine-labeled 2nd antibody (E). Rhodamine fluorescence represents P-Smad2 staining (a,b,c) whereas the nuclei were stained by DAPI staining (d,e,f).
Cells grown to near confluence on 12-well cluster dishes were treated with cholesterol or LDL in serum-free DMEM (vol.=0.5 ml/well) at 37° C. for 1 hr. […] Treated cells were lysed and cell lysates were analyzed by 7.5% SDS-PAGE and Western blot analysis using anti-Smad2, anti-P-Smad2, anti-caveolin-1, anti-TβR-I (alk5) or anti-TβR-II antibodies as described previously (30). […]
It has been reported that TGF-β responsiveness is determined by TGF-β partitioning between lipid raft/caveolae-mediated and clathrin-mediated endocytosis. […]

With CC(C)CCC[C@@H](C)[C@H]1CC[C@H]2[C@@H]3CC=C4C[C@@H](O)CC[C@]4(C)[C@H]3CC[C@]12C [cholesterol] the “increase of 125I-TGF-β1 binding to TβR-I” value ([1]; 50 μg/ml) was ~5.7 fold, the “ratio of TβR-II/TβR-I” value ([1]; 50 μg/ml, 2.0 untreated) was 0.35 and the “effect on binding of 125I-TGF-β1 to TβR-II” value ([1]; increasing concentrations) was “did not significant alter”. The “suppression of Smad2 phosphorylation stimulated by TGF-β1” value [2] was 90%.
